Assay results from the supplement of paper PMC10307832.

Columns and labels:
Experiment in all cases: relative viability (nuclei count vs DMSO), 5 days (fraction); higher = more cells survive
AZD8055 + Navitoclax = compound: COc1ccc(-c2ccc3c(N4CCOC[C@@H]4C)nc(N4CCOC[C@@H]4C)nc3n2)cc1CO [AZD8055] + CC1(C)CCC(c2ccc(Cl)cc2)=C(CN2CCN(c3ccc(C(=O)NS(=O)(=O)c4ccc(N[C@H](CCN5CCOCC5)CSc5ccccc5)c(S(=O)(=O)C(F)(F)F)c4)cc3)CC2)C1 [Navitoclax] (partner 0.5 µM)
Summary of the method: (§1)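 Relative viability is defined as nuclei in treated wells over nuclei in vehicle wells. Duplicate plates were run and medians reported. Lung cancer cell lines in 1536-well plates were dosed by pin tool one day after seeding, with one drug or with a fixed anchor-drug dose plus five library-drug doses (not always all listed) in √10 steps, and nuclei were counted after 5 days.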

AZD8055 + Linsitinib = compound: COc1ccc(-c2ccc3c(N4CCOC[C@@H]4C)nc(N4CCOC[C@@H]4C)nc3n2)cc1CO [AZD8055] + C[C@]1(O)C[C@@H](c2nc(-c3ccc4ccc(-c5ccccc5)nc4c3)c3c(N)nccn32)C1 [Linsitinib] (partner 1 µM)
Summary of the method: as §1

AZD8055 + Foretinib = compound: COc1ccc(-c2ccc3c(N4CCOC[C@@H]4C)nc(N4CCOC[C@@H]4C)nc3n2)cc1CO [AZD8055] + COc1cc2c(Oc3ccc(NC(=O)C4(C(=O)Nc5ccc(F)cc5)CC4)cc3F)ccnc2cc1OCCCN1CCOCC1 [Foretinib] (partner 0.25 µM)
Summary of the method: as §1

AZD8055 + Luminespib = compound: COc1ccc(-c2ccc3c(N4CCOC[C@@H]4C)nc(N4CCOC[C@@H]4C)nc3n2)cc1CO [AZD8055] + CCNC(=O)c1noc(-c2cc(C(C)C)c(O)cc2O)c1-c1ccc(CN2CCOCC2)cc1 [Luminespib] (partner 0.01 µM)
Summary of the method: as §1

| Cell Line | relative viability (AZD8055 + Navitoclax; first compound 0.01 µM) | relative viability (AZD8055 + Navitoclax; first compound 0.03162 µM) | relative viability (AZD8055 + Navitoclax; first compound 0.1 µM) | relative viability (AZD8055 + Navitoclax; first compound 0.3162 µM) | relative viability (AZD8055 + Navitoclax; first compound 1 µM) | relative viability (AZD8055 + Linsitinib; first compound 0.01 µM) | relative viability (AZD8055 + Linsitinib; first compound 0.03162 µM) | relative viability (AZD8055 + Linsitinib; first compound 0.1 µM) | relative viability (AZD8055 + Linsitinib; first compound 0.3162 µM) | relative viability (AZD8055 + Linsitinib; first compound 1 µM) | relative viability (AZD8055 + Foretinib; first compound 0.01 µM) | relative viability (AZD8055 + Foretinib; first compound 0.03162 µM) | relative viability (AZD8055 + Foretinib; first compound 0.1 µM) | relative viability (AZD8055 + Foretinib; first compound 0.3162 µM) | relative viability (AZD8055 + Foretinib; first compound 1 µM) | relative viability (AZD8055 + Luminespib; first compound 0.01 µM) | relative viability (AZD8055 + Luminespib; first compound 0.03162 µM) | relative viability (AZD8055 + Luminespib; first compound 0.1 µM) | relative viability (AZD8055 + Luminespib; first compound 0.3162 µM) | relative viability (AZD8055 + Luminespib; first compound 1 µM) |
| --- | --- | --- | --- | --- | --- | --- | --- | --- | --- | --- | --- | --- | --- | --- | --- | --- | --- | --- | --- | --- |
| HCC-78 | 0.817 | 0.574 | 0.339 | 0.238 | 0.198 | 0.442 | 0.355 | 0.222 | 0.195 | 0.177 | 0.496 | 0.527 | 0.388 | 0.417 | 0.308 | – | – | – | – | – |
| HCC-366 | 1.15 | 0.911 | 0.694 | 0.418 | 0.132 | 0.539 | 0.245 | 0.218 | 0.0598 | 0.0927 | 0.979 | 0.913 | 0.687 | 0.428 | 0.417 | – | – | – | – | – |
| HCC-827 | 1.03 | 0.991 | 1.03 | 0.92 | 0.456 | 0.97 | 0.971 | 0.932 | 0.794 | 0.469 | 1.14 | 0.98 | 1.02 | 0.424 | 0.337 | 0.6 | 0.336 | 0.308 | 0.319 | 0.13 |
| HOP-62 | 1.09 | 1.11 | 1.17 | 0.75 | 0.594 | 1.09 | 0.789 | 0.869 | 0.362 | 0.266 | 1.01 | 1.01 | 1.09 | 0.609 | 0.521 | 1.08 | 0.842 | 0.888 | 0.634 | 0.482 |
| IA-LM | 0.566 | 0.495 | 0.291 | 0.109 | 0.105 | 0.876 | 0.611 | 0.252 | 0.0793 | 0.118 | 0.933 | 0.659 | 0.567 | 0.169 | 0.126 | – | – | – | – | – |
| LC-2-ad | 0.349 | 0.309 | 0.163 | 0.185 | 0.154 | 0.852 | 0.803 | 0.56 | 0.414 | 0.397 | 1.05 | 0.855 | 0.652 | 0.58 | 0.469 | 1.25 | 0.969 | 1.03 | 0.537 | 0.548 |
| LCLC-97TM1 | 0.45 | 0.225 | 0.214 | 0.13 | 0.144 | 0.182 | 0.143 | 0.13 | 0.122 | 0.139 | 0.963 | 0.74 | 0.671 | 0.417 | 0.529 | 0.706 | 0.531 | 0.365 | 0.216 | 0.241 |
| LCLC-103H | – | – | – | – | – | 1 | 0.929 | 0.723 | 0.467 | 0.481 | 0.72 | 0.616 | 0.583 | 0.359 | 0.281 | 0.951 | 0.762 | 0.793 | 0.414 | 0.271 |
| LK-2 | 0.797 | 0.584 | 0.441 | 0.216 | 0.241 | 0.334 | 0.28 | 0.249 | 0.164 | 0.238 | 0.938 | 0.938 | 0.648 | 0.292 | 0.142 | 0.154 | 0.186 | 0.16 | 0.173 | 0.144 |
